Assays:
[1] = target: T1, PETase (Piscinibacter sakaiensis, UniProt A0A0K8P6T7); experiment: PET-hydrolyzing activity of PETase on PET film in presence of surfactant (amount of degradation product MHET by HPLC); type: biochemical, Ideonella sp. No. 201-F6 strain; conditions: for PET-hydrolyzing activity compared with control (FIG. 2): surfactant 0.01% (w/v), pre-incubation 30° C. 1 hour, reaction 3 hours; for Relative activity: 0.01% SDS vs control
T1 construct: made in house; host or cells: Escherichia coli BL21 Codon Plus (DE3) RIPL
T1 sequence (A0A0K8P6T7 28-290): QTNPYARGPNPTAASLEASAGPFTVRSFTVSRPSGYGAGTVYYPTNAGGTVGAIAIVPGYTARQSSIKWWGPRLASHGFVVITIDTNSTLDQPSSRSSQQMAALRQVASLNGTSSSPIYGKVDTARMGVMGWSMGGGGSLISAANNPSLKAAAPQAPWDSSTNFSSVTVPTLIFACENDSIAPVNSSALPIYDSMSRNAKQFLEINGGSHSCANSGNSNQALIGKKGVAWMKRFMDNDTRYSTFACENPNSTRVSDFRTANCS
Procedure: In addition to the optimal conditions, a surfactant was added in a concentration of 0.001 to 0.01 (w/v) %, and the activity was then measured. As surfactants, six types of surfactants, namely. [A] Sodium Cholate (SC), [B] 3-[(3-Cholamidopropyl)dimethylammonio]propanesulfonate (CHAPS), [C] Sodium dodecyl sulfate (SDS), [D] Octylphenol ethoxylate (Triton X-114), [E] Polysorbate 80 (Tween 80), [F] and Dodecyltrimethylammoniumu chloride (DTMA-Cl), were used (FIG. 1). The surfactant, a buffer and a film were added to the reaction system, and the obtained mixture was then pre-incubated at 30° C. for 1 hour. Thereafter, the concentration of the enzyme was set at 50 nM, the film area was set at 3.39 cm^2/mL, and the reaction was carried out for 3 hours.
A system, to which no surfactants were added, was used as a control.
The film area was changed, and the enzyme concentration was set at 50 nM or 500 nM, and thereafter, the activity was measured under the optimal conditions and in the presence of 0.01(v/v) % SDS. Moreover, a comparison was made regarding the case of setting the enzyme concentration at 50 nM and the amount of the degradation product (monohydroxyethyl terephthalate (MHET)) depending on the reaction time.
The amount of the degradation product was measured by reverse phase high performance liquid chromatography (HPLC) in accordance with the method described in International Publication WO 2015/025861.
The pre-incubation time after addition of SDS was set at 0 or 1 hour, the reaction time was set at 1 hour, the enzyme concentration was set at […], and the film area was set at 3.39 cm^2/mL. Thereafter, a comparison was made in terms of the activity under the optimal conditions.
The enzyme concentration was set at 500 nM, the SDS concentration and the film area were changed, and the activity under the optimal conditions was then measured.

[2] = target: T1, PETase; experiment: pNPB (p-nitrophenyl-butyrate)-hydrolyzing activity; type: biochemical, Ideonella sp. No. 201-F6 strain; conditions: 0.01 (w/v) % SDS; enzyme 250 nM; substrate pNPB
Procedure: In the following examples, the activity of PETase (PET-hydrolyzing activity) was measured using, as indicators, the amount of a degradation product and pNPB (p-nitrophenyl-butyrate)-hydrolyzing activity. Hereafter, a method of measuring pNPB (p-nitrophenyl-butyrate)-hydrolyzing activity is described.
pNPB used as an artificial substrate in the measurement of esterase activity is hydrolyzed into 1-butanoic acid and p-nitrophenol (pNP).
The pNPB-hydrolyzing activity immediately after purification of the enzyme was measured. The composition of a reaction solution is shown in Table 1. pNPB was dissolved in dimethyl sulfoxide (DMSO). The enzyme was mixed with a buffer, and the obtained mixture was then incubated at 30° C. for 30 minutes. Thereafter, the substrate was added to the reaction mixture, and a change in the absorbance at 425 nm for 1 minute was measured three times. The inclination (ΔAbs) of the measured absorbance change was applied to the following equation to obtain catalyst turnover frequency.
TOF: Catalyst turnover frequency; ε: Molar absorption coefficient; c: Enzyme concentration; 1: Thickness of solution layer; Δt: Reaction time.
The p-nitrophenyl-butyrate(pNPB)-hydrolyzing activity was measured in the presence of 0.01 (w/v) % SDS, in addition to the conditions shown in Table 1.

[3] = target: T1, PETase; experiment: Amount of enzyme adsorbed on PET film (SDS-PAGE); set-up: species or system Ideonella sp. No. 201-F6 strain; conditions: SDS 0.01 to 0.04 (w/v) %; enzyme 500 nM; pre-incubation 1 hour; reaction 3 hours; film area 1.13 cm^2/mL
Procedure: The amount of the enzyme adsorbed on the film was observed under conditions in which the activity was changed by addition of a surfactant. SDS was added to the reaction system to result in a concentration of 0.01 (w/v) % to 0.04 (w/v) %, in addition to conditions of an enzyme concentration of 500 nM, a pre-incubation time of 1 hour, a reaction time of 3 hours, and a film area of 1.13 cm^2/mL. After completion of the reaction, the film was removed using tweezers, and was then rinsed with distilled water. The film was placed on the lid of a 1.5-mL tube, and thereafter, 10 μL of an SDS-PAGE sample buffer was added thereto. After that, the resultant was left at rest for 10 minutes, and was then centrifuged. The thus centrifuged solution was subjected to SDS-PAGE. Moreover, in addition to the conditions without addition of surfactants, a comparison was made with conditions including addition of DTMA-Cl that was a cationic surfactant.

[4] = enzyme 50 nM, film area 3.39 cm^2/mL
[5] = enzyme 50 nM, film area 1.13 cm^2/mL
[6] = enzyme 50 nM, film area 2.26 cm^2/mL
[7] = enzyme 50 nM, film area 5.65 cm^2/mL
[8] = enzyme 50 nM, film area 9.04 cm^2/mL
[9] = enzyme 50 nM, film area 11.3 cm^2/mL
[10] = enzyme 500 nM, film area 1.13 cm^2/mL
[11] = enzyme 500 nM, film area 2.26 cm^2/mL
[12] = enzyme 500 nM, film area 3.39 cm^2/mL
[13] = enzyme 500 nM, film area 5.65 cm^2/mL
[14] = enzyme 500 nM, film area 9.04 cm^2/mL
[15] = enzyme 500 nM, film area 11.3 cm^2/mL

CCCCCCCCCCCC[N+](C)(C)C.[Cl-] [DTMA-Cl, Dodecyltrimethylammoniumu chloride]
PET-hydrolyzing activity compared with control (FIG. 2) [1, 4]: the activity was significantly decreased

Polysorbate 80 [Tween 80]
PET-hydrolyzing activity compared with control (FIG. 2) [1, 4]: the activity was found with the surfactants other than Tween 80 and DTMA-Cl

CCCCCCCCCCCCOS(=O)(=O)[O-].[Na+] [SDS, Sodium dodecyl sulfate]
Reduction of pNPB-hydrolyzing activity after addition of SDS (FIG. 4) [2]: approximately 5%
Amount of enzyme (protein) adsorbed on film (FIG. 7) [3]: adsorption of a large amount of protein was confirmed
Relative activity [1, 5]: 2.47 fold
Relative activity [1, 6]: 1.99 fold
Relative activity [1, 4]: 1.86 fold
Relative activity [1, 7]: 1.75 fold
Relative activity [1, 8]: 1.99 fold
Relative activity [1, 9]: 1.72 fold
Relative activity [1, 10]: 2170 fold
Relative activity [1, 11]: 50.6 fold
Relative activity [1, 12]: 6.01 fold
Relative activity [1, 13]: 3.58 fold
Relative activity [1, 14]: 3.32 fold
Relative activity [1, 15]: 3.11 fold
Activity relative to control ([1]; addition of SDS, enzyme 50 nM, film area 1.13 cm^2/mL): approximately 2.5 times
Activity relative to control ([1]; addition of SDS, enzyme 50 nM, film area 11.3 cm^2/mL): approximately 1.7 times
PET-hydrolyzing activity versus control ([1]; addition of SDS, enzyme 500 nM): the activity was exhibited, although almost no activity was exhibited in the case of the control
Activity upon addition of 0.01% SDS [1, 5]: 793 h⁻¹
Activity upon addition of 0.01% SDS [1, 6]: 901 h⁻¹
Activity upon addition of 0.01% SDS [1, 4]: 1020 h⁻¹
Activity upon addition of 0.01% SDS [1, 7]: 1270 h⁻¹
Activity upon addition of 0.01% SDS [1, 8]: 1680 h⁻¹
Activity upon addition of 0.01% SDS [1, 9]: 1910 h⁻¹
Activity upon addition of 0.01% SDS [1, 10]: 154 h⁻¹
Activity upon addition of 0.01% SDS [1, 11]: 260 h⁻¹
Activity upon addition of 0.01% SDS [1, 12]: 297 h⁻¹
Activity upon addition of 0.01% SDS [1, 13]: 451 h⁻¹
Activity upon addition of 0.01% SDS [1, 14]: 660 h⁻¹
Activity upon addition of 0.01% SDS [1, 15]: 743 h⁻¹
Optimal SDS concentration (FIG. 6) ([1]; enzyme 500 nM, film area of up to 5.65 cm^2/mL): 0.02 (w/v) %
Optimal SDS concentration (FIG. 6) ([1]; enzyme 500 nM, film area of up to 11.3 cm^2/mL): 0.03 (w/v) %
Change over time in amount of PET degradation product / enzyme stability (FIG. 3) ([1]; in presence of SDS, enzyme 50 nM, reaction of 3 hours): almost no activity decrease took place
Amount of degradation product depending on pre-incubation time (FIG. 5) ([1]; pre-incubation after SDS addition 0 or 1 hour, reaction 1 hour, enzyme 50 nM, film area 3.39 cm^2/mL): the amount of a degradation product was changed depending on the pre-incubation time
PET-hydrolyzing activity compared with control (FIG. 2) [1, 4]: approximately two times greater than the activity of the control
